According to the supplement of paper PMC11451515:

How the values were obtained:
Details in all cases: 48 h
NOMO1 [1] = assay: cell viability relative to DMSO control; higher = less cytotoxic
Procedure, shortened: (§1)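 Before seeding, each leukemia line was adapted for at least four passages in each medium. NOMO1 or SEM cells (500 cells/well) and P12-Ichikawa cells (1000 cells/well) went into 1536-well plates at 5 μl, then received library compounds in DMSO by pin dosing across 11 threefold concentrations, 47 μM to 0.79 nM. Readout was CellTiter-Glo One luminescence after 48 h at 37°C, and viability is given as a per-plate percentage of DMSO wells, with cell-free wells as background.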

P12-Ichikawa [2] = assay: as above
Procedure, shortened: as §1

SEM cells [3] = assay: as above
Procedure, shortened: as §1

NOMO1 [4] = assay: AUC of viability dose-response curve (% viability x log10 dose units); higher = less sensitive
Procedure, shortened: (§2)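 In 1536-well plates, leukemia cells adapted to each medium (500 or 1000 cells/well) were exposed for 48 h at 37°C to library compounds in DMSO across 11 threefold doses, 47 μM down to 0.79 nM. Viability was read by CellTiter-Glo One luminescence and normalised per plate to DMSO and cell-free wells. A four-parameter log-logistic fit over log10 doses was integrated by trapezoidal rule. This yielded the area under the curve, with over-full-viability curves scaled and quality-control failures dropped.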

P12-Ichikawa [5] = assay: as above
Procedure, shortened: as §2

SEM cells [6] = assay: as above
Procedure, shortened: as §2

[7] = HPLM + 10% dialyzed FBS, 0.000781 µM
[8] = HPLM + 10% dialyzed FBS, 0.00234 µM
[9] = HPLM + 10% dialyzed FBS, 0.00702 µM
[10] = HPLM + 10% dialyzed FBS, 0.0211 µM
[11] = HPLM + 10% dialyzed FBS, 0.0632 µM
[12] = HPLM + 10% dialyzed FBS, 0.19 µM
[13] = HPLM + 10% dialyzed FBS, 0.569 µM
[14] = HPLM + 10% dialyzed FBS, 1.71 µM
[15] = HPLM + 10% dialyzed FBS, 5.12 µM
[16] = HPLM + 10% dialyzed FBS, 15.4 µM
[17] = HPLM + 10% dialyzed FBS, 46.1 µM
[18] = RPMI 5 mM glucose + 10% FBS, 0.000781 µM
[19] = RPMI 5 mM glucose + 10% FBS, 0.00234 µM
[20] = RPMI 5 mM glucose + 10% FBS, 0.00702 µM
[21] = RPMI 5 mM glucose + 10% FBS, 0.0211 µM
[22] = RPMI 5 mM glucose + 10% FBS, 0.0632 µM
[23] = RPMI 5 mM glucose + 10% FBS, 0.19 µM
[24] = RPMI 5 mM glucose + 10% FBS, 0.569 µM
[25] = RPMI 5 mM glucose + 10% FBS, 1.71 µM
[26] = RPMI 5 mM glucose + 10% FBS, 5.12 µM
[27] = RPMI 5 mM glucose + 10% FBS, 15.4 µM
[28] = RPMI 5 mM glucose + 10% FBS, 46.1 µM
[29] = RPMI 5 mM glucose + 10% dialyzed FBS, 0.000781 µM
[30] = RPMI 5 mM glucose + 10% dialyzed FBS, 0.00234 µM
[31] = RPMI 5 mM glucose + 10% dialyzed FBS, 0.00702 µM
[32] = RPMI 5 mM glucose + 10% dialyzed FBS, 0.0211 µM
[33] = RPMI 5 mM glucose + 10% dialyzed FBS, 0.0632 µM
[34] = RPMI 5 mM glucose + 10% dialyzed FBS, 0.19 µM
[35] = RPMI 5 mM glucose + 10% dialyzed FBS, 0.569 µM
[36] = RPMI 5 mM glucose + 10% dialyzed FBS, 1.71 µM
[37] = RPMI 5 mM glucose + 10% dialyzed FBS, 5.12 µM
[38] = RPMI 5 mM glucose + 10% dialyzed FBS, 15.4 µM
[39] = RPMI 5 mM glucose + 10% dialyzed FBS, 46.1 µM
[40] = RPMI 5 mM glucose + 10% dialyzed FBS

`CN[C@@H](C)C(=O)N[C@H]1CCCC[C@H]2CC[C@@H](C(=O)N[C@@H](c3ccccc3)c3cn(CCCCc4ccc(CCCCn5cc([C@@H](NC(=O)[C@@H]6CC[C@@H]7CCCC[C@H](NC(=O)[C@H](C)NC)C(=O)N76)c6ccccc6)nn5)cc4)nn3)N2C1=O` was tested, and the cell viability (NOMO1 [1]; [7]) was 82.8%, the cell viability (NOMO1 [1]; [8]) was 79.3% and the cell viability (NOMO1 [1]; [9]) was 56%. For the same compound, the cell viability (NOMO1 [1]; [10]) was 61%, the cell viability (NOMO1 [1]; [11]) was 42.3% and the cell viability (NOMO1 [1]; [12]) was 54.4%. The cell viability (NOMO1 [1]; [13]) was 50.6%, the cell viability (NOMO1 [1]; [14]) was 47.9% and the cell viability (NOMO1 [1]; [15]) was 48%. The cell viability (NOMO1 [1]; [16]) was 27.5%, the cell viability (NOMO1 [1]; [17]) was 33.4% and the cell viability (NOMO1 [1]; [18]) was 85.6%. For the same compound, the cell viability (NOMO1 [1]; [19]) was 82.4%, the cell viability (NOMO1 [1]; [20]) was 80.8% and the cell viability (NOMO1 [1]; [21]) was 87.9%. For the same compound, the cell viability (NOMO1 [1]; [22]) was 48.4%, the cell viability (NOMO1 [1]; [23]) was 61.5% and the cell viability (NOMO1 [1]; [24]) was 74%. It also gave a cell viability (NOMO1 [1]; [25]) of 70.8%, a cell viability (NOMO1 [1]; [26]) of 51.8% and a cell viability (NOMO1 [1]; [27]) of 51.2%. It also gave a cell viability (NOMO1 [1]; [28]) of 57.1%, a cell viability (NOMO1 [1]; [29]) of 75.9% and a cell viability (NOMO1 [1]; [30]) of 81.6%. For the same compound, the cell viability (NOMO1 [1]; [31]) was 84.8%, the cell viability (NOMO1 [1]; [32]) was 64.9% and the cell viability (NOMO1 [1]; [33]) was 65.5%. The cell viability (NOMO1 [1]; [34]) was 72.2%, the cell viability (NOMO1 [1]; [35]) was 53.6% and the cell viability (NOMO1 [1]; [36]) was 52.2%. The cell viability (NOMO1 [1]; [37]) was 42.6%, the cell viability (NOMO1 [1]; [38]) was 54.7% and the cell viability (NOMO1 [1]; [39]) was 34.2%. It also gave a cell viability (P12-Ichikawa [2]; [7]) of 103%, a cell viability (P12-Ichikawa [2]; [8]) of 101% and a cell viability (P12-Ichikawa [2]; [9]) of 99.3%. For the same compound, the cell viability (P12-Ichikawa [2]; [10]) was 95.4%, the cell viability (P12-Ichikawa [2]; [11]) was 102% and the cell viability (P12-Ichikawa [2]; [12]) was 99.8%. It also gave a cell viability (P12-Ichikawa [2]; [13]) of 94.8%, a cell viability (P12-Ichikawa [2]; [14]) of 104% and a cell viability (P12-Ichikawa [2]; [15]) of 96.3%. For the same compound, the cell viability (P12-Ichikawa [2]; [16]) was 96.8%, the cell viability (P12-Ichikawa [2]; [17]) was 94.7% and the cell viability (P12-Ichikawa [2]; [18]) was 98.6%. It also gave a cell viability (P12-Ichikawa [2]; [19]) of 104%, a cell viability (P12-Ichikawa [2]; [20]) of 92% and a cell viability (P12-Ichikawa [2]; [21]) of 106%. The cell viability (P12-Ichikawa [2]; [22]) was 92.8%, the cell viability (P12-Ichikawa [2]; [23]) was 99.7% and the cell viability (P12-Ichikawa [2]; [24]) was 115%. It also gave a cell viability (P12-Ichikawa [2]; [25]) of 97.9%, a cell viability (P12-Ichikawa [2]; [26]) of 96.2% and a cell viability (P12-Ichikawa [2]; [27]) of 97.1%. It also gave a cell viability (P12-Ichikawa [2]; [28]) of 79.9%, a cell viability (P12-Ichikawa [2]; [29]) of 90.8% and a cell viability (P12-Ichikawa [2]; [30]) of 110%. It also gave a cell viability (P12-Ichikawa [2]; [31]) of 94.7%, a cell viability (P12-Ichikawa [2]; [32]) of 84.7% and a cell viability (P12-Ichikawa [2]; [33]) of 93%. The cell viability (P12-Ichikawa [2]; [34]) was 101%, the cell viability (P12-Ichikawa [2]; [35]) was 97.3% and the cell viability (P12-Ichikawa [2]; [36]) was 98%. It also gave a cell viability (P12-Ichikawa [2]; [37]) of 92.1%, a cell viability (P12-Ichikawa [2]; [38]) of 93.5% and a cell viability (P12-Ichikawa [2]; [39]) of 72.9%. For the same compound, the cell viability (SEM cells [3]; [7]) was 73.5%, the cell viability (SEM cells [3]; [8]) was 96.1% and the cell viability (SEM cells [3]; [9]) was 90.5%. The cell viability (SEM cells [3]; [10]) was 100%, the cell viability (SEM cells [3]; [11]) was 90.5% and the cell viability (SEM cells [3]; [12]) was 89.2%. It also gave a cell viability (SEM cells [3]; [13]) of 88.1%, a cell viability (SEM cells [3]; [14]) of 91% and a cell viability (SEM cells [3]; [15]) of 92.2%. The cell viability (SEM cells [3]; [16]) was 103%, the cell viability (SEM cells [3]; [17]) was 69.2% and the cell viability (SEM cells [3]; [18]) was 90.3%. For the same compound, the cell viability (SEM cells [3]; [19]) was 97.9%, the cell viability (SEM cells [3]; [20]) was 94.9% and the cell viability (SEM cells [3]; [21]) was 95.6%. It also gave a cell viability (SEM cells [3]; [22]) of 83.4%, a cell viability (SEM cells [3]; [23]) of 89.5% and a cell viability (SEM cells [3]; [24]) of 82.2%. For the same compound, the cell viability (SEM cells [3]; [25]) was 87.2%, the cell viability (SEM cells [3]; [26]) was 94.8% and the cell viability (SEM cells [3]; [27]) was 85%. For the same compound, the cell viability (SEM cells [3]; [28]) was 35.3%, the cell viability (SEM cells [3]; [29]) was 95.8% and the cell viability (SEM cells [3]; [30]) was 90.5%. For the same compound, the cell viability (SEM cells [3]; [31]) was 82%, the cell viability (SEM cells [3]; [32]) was 95.2% and the cell viability (SEM cells [3]; [33]) was 99.4%. The cell viability (SEM cells [3]; [34]) was 86.8%, the cell viability (SEM cells [3]; [35]) was 82.3% and the cell viability (SEM cells [3]; [36]) was 95.3%. It also gave a cell viability (SEM cells [3]; [37]) of 82.4%, a cell viability (SEM cells [3]; [38]) of 84.4% and a cell viability (SEM cells [3]; [39]) of 54.4%. For the same compound, the “AUC of viability dose-response curve” value (NOMO1 [4]; HPLM + 10% dialyzed FBS) was 250, the “AUC of viability dose-response curve” value (NOMO1 [4]; RPMI 5 mM glucose + 10% FBS) was 325 and the “AUC of viability dose-response curve” value (NOMO1 [4]; [40]) was 297. For the same compound, the “AUC of viability dose-response curve” value (P12-Ichikawa [5]; HPLM + 10% dialyzed FBS) was 465, the “AUC of viability dose-response curve” value (P12-Ichikawa [5]; RPMI 5 mM glucose + 10% FBS) was 471 and the “AUC of viability dose-response curve” value (P12-Ichikawa [5]; [40]) was 450. For the same compound, the “AUC of viability dose-response curve” value (SEM cells [6]; HPLM + 10% dialyzed FBS) was 431, the “AUC of viability dose-response curve” value (SEM cells [6]; RPMI 5 mM glucose + 10% FBS) was 417 and the “AUC of viability dose-response curve” value (SEM cells [6]; [40]) was 418.
